# Laboratory results published in article PMC6978800, “FAMIN Is a Multifunctional Purine Enzyme Enabling the Purine Nucleotide Cycle” (Cell, 2020).
# Key:
# YlmD [1] = target: T1, YlmD (Geobacillus stearothermophilus, UniProt P84138); assay: LC-MS of inosine and adenine; format: biochemical; settings: 10 μM substrate, PBS pH 7.4, 37°C, 1 h
# T1 construct: gene pgeF; synthetic gene in pPSG-IBA105 (Strep-tag); expressed in E. coli BL21(DE3); StrepTrap and size exclusion
# T1 sequence (P84138 1-274): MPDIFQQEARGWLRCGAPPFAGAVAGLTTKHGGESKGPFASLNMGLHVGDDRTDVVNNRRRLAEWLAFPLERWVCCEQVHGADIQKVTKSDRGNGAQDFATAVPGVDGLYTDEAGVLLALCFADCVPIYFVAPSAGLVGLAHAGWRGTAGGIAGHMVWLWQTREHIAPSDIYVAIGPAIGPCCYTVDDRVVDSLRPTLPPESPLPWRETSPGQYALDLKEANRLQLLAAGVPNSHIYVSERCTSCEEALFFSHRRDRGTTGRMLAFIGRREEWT
# YfiH = target: T2, YfiH (Escherichia coli, UniProt P33644); assay: LC-MS of inosine and adenine; format: biochemical; settings: 10 μM substrate, PBS pH 7.4, 37°C, 1 h
# T2 construct: gene pgeF; synthetic gene in pPSG-IBA105 (Strep-tag); expressed in E. coli BL21(DE3); StrepTrap and size exclusion
# T2 sequence (P33644 1-243): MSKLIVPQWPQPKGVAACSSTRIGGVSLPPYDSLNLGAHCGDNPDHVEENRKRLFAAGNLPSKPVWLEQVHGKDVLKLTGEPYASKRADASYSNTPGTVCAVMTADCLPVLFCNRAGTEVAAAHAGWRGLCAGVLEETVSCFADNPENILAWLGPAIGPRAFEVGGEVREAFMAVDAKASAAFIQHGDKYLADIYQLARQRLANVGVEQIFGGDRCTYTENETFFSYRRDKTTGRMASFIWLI
# FAMIN^254I = target: T3, FAMIN^254I (Homo sapiens, UniProt Q8IV20); assay: LC-MS product quantitation, Michaelis-Menten; format: biochemical; settings: PBS pH 7.4, 37°C; phosphate as co-substrate of phosphorolysis; read-out: apparent Km
# T3 construct: gene LACC1; full-length, N-terminal Twin-Strep-tag with TEV site, tag cut (kept in select experiments); expressed in HEK293T; monomer; 430 residues
# T3 sequence (Q8IV20 1-430): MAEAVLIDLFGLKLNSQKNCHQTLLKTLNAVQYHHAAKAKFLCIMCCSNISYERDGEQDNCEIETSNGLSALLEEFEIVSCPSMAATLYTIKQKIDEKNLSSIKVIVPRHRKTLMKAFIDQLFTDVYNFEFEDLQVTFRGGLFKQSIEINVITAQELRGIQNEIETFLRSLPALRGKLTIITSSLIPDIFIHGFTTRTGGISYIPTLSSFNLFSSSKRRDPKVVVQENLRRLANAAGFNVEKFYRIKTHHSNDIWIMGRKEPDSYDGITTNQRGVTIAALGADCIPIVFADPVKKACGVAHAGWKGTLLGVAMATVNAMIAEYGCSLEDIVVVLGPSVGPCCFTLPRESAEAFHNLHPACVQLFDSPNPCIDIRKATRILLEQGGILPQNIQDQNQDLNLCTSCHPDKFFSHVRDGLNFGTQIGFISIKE
# YlmD [2] = target: T1, YlmD; assay: X-ray crystal structure, soaked crystals, […] Å; format: binding; settings: soak with 18.7 mM inosine, 0.5 mM sodium phosphate, 0.5 mM zinc sulfate, pH 7.5; active site, ribose partially hydrolyzed or disordered
# YlmD [3] = target: T1, YlmD; assay: LC-MS of adenine; format: biochemical; settings: 10 μM substrate, PBS pH 7.4, 37°C, 1 h
SMILES,LC-MS of inosine and adenine (YlmD [1]),LC-MS of inosine and adenine (YfiH),Km (FAMIN^254I) [µM],"X-ray crystal structure, soaked crystals, 1.2 Å (YlmD [2])",LC-MS of adenine (YlmD [3])
Nc1ncnc2c1ncn2[C@@H]1O[C@H](CO)[C@@H](O)[C@H]1O [Adenosine],"YlmD and YfiH metabolized adenosine to inosine and adenine, MTA to adenine","YlmD and YfiH metabolized adenosine to inosine and adenine, MTA to adenine",36,–,–
O=c1[nH]cnc2c1ncn2[C@@H]1O[C@H](CO)[C@@H](O)[C@H]1O [Inosine],–,–,41,unambiguously identifying the purine ring of a bound inosine molecule,–
CSC[C@H]1O[C@@H](n2cnc3c(N)ncnc32)[C@H](O)[C@@H]1O [S-methyl-5′-thioadenosine],–,–,1,–,"YlmD and YfiH metabolized adenosine to inosine and adenine, MTA to adenine"
